Results as given in US10327423B2, “Antimicrobial compounds and compositions, and uses thereof” (Akeso Biomedical, Inc., priority 2014, dated 2019).
“Also recorded” adds a separate entry of the source.

Assays:
EPEC-AcsrA = assay: BioFlux system, disruption of a mature biofilm; format: cell-based, Escherichia coli; details: 20 hours
Protocol: The mature biofilm was treated with FeTyr at concentrations of 100, 150 and 200 μM for 20 hours and compared to a control biofilm that had just been treated with LB medium 30% v/v. […] Mature biofilm was treated with FeDOPA at a concentration of 100 μM for 20 hours and compared to a control biofilm that had just been treated with LB medium 30% v/v.

[1] = system: Enteropathogenic E. coli (EPEC) E2348/69; assay: Crystal violet assay of attachment to plastic wells; format: cell-based, Escherichia coli; details: FeDOPA 68-250 μM; 48 hours at 37° C.
Protocol: (§1) Enteropathogenic E. coli (EPEC) E2348/69 were grown in wells for 48 hours at 37° C. in the presence of FeQ (100 μM), and in the absence of FeQ (as control). After 48 hours, the wells were washed in order to remove suspended cells. Crystal violet was then added to each well. The wells were then washed to remove excess dye. A mixture of acetone/ethanol was then added to the wells to re-suspend any cells attached to the plastic surface of the wells, and dissolve any dye present. The presence of dye in each well was then quantified by measuring the O.D. at 570 nm.
as §1, with “FeDOPA (10-250” for “FeQ (100”, “FeDOPA” for “FeQ”

[2] = system: Enteropathogenic E. coli (EPEC) strain E2348/69; assay: Growth curve of antibiotic resistant EPEC with gentamicin and Fe complex; format: cell-based, Escherichia coli
Protocol: The impact on the growth curve of antibiotic resistant Enteropathogenic E. coli (EPEC) strain E2348/69 (genotype Wild Type EPEC O17:H6) when grown in the presence of (i) gentamicin (1.25 μM), (ii) Fe-Tyr (100 μM), (iii) gentamicin (1.25 μM) and Fe-Tyr (1.25 μM), and (iv) a control with no gentamicin or Fe-Tyr present was determined.
(§2) The impact on the growth curve of antibiotic resistant Enteropathogenic E. coli (EPEC) strain E2348/69 (genotype Wild Type EPEC O17:H6) when grown in the presence of a fixed concentration of gentamicin (1.25 μM) and an increasing concentration of FeQ versus the strain grown in the presence of only FeQ or only gentamicin, was determined.
as §2, with “FeDOPA” for “FeQ”

Campylobacter = Campylobacter carriage in chickens (cfu/g of droppings and caeca samples); format: in vivo; details: treatment groups 3, 5, 6, 7 (FeQ) and 8 (FeTyr), days 0-42; dirty litter challenge
Protocol: A study was performed to evaluate growth promotion and reduction of Campylobacter carriage using FeQ and FeTyr in Ross 308 male broilers with 7 treatment groups. Each treatment group comprised four replicates of 10 birds per pen (40 birds/treatment group and 4 pens of 10 birds/treatment group), and there were 2 control groups and 5 test groups. All the test groups and one of the control groups were exposed at day 20 of the trial to dirty litter, which tested positive for Campylobacter. This method was used to provide a more natural method to Campylobacter challenge the birds. Thus there was a positive control where one treatment group was challenged with Campylobacter and one negative control group where the birds were not challenged, and five treatment groups that were all challenged with Campylobacter. The total number of birds used in the 7 treatment groups was 280. Treatment group 1 was a negative control where birds just received the commercial feed, and were not challenged with dirty litter containing Campylobacter. Treatment group 2 was the positive control where the birds received the commercial feed, and were challenged with dirty litter containing Campylobacter at day 20. Treatment group 3 received 0.22 g/L of FeQ in their drinking water and 0.22 g/Kg FeQ in their feed during the entire trial, and was challenged with dirty litter containing Campylobacter at day 20. Treatment group 5 received 0.22 g/L of FeQ in their drinking water during the entire trial, and was challenged with dirty litter containing Campylobacter at day 20. Treatment group 6 received 0.22 g/kg FeQ in their feed during the entire trial, and was challenged with dirty litter containing Campylobacter at day 20. […]
Prior to challenging the chickens with dirty litter containing Campylobacter at day 20, each pen was tested for Campylobacter using cloacal swabs. […] Samples were analyzed for blood chemistry, including analysis for alkaline phosphatase, aspartate amino transferase, alanine amino transferase, gamma-glutamyl transferase, lactate dehydrogenase, total protein, albumin, globulin, amylase and glucose.

EPEC-pgA^++ = assay: Crystal violet assay of disruption of a mature biofilm; format: cell-based, Escherichia coli; details: FeTyr 100, 150 and 200 μM; 72 hours
Protocol: A mature biofilm formed by EPEC-pgA^++ was treated with FeTyr for 24, 48 and 72 hours at FeTyr concentrations of 100 μM, 150 μM and 200 μM and the presence of the biofilm after these times was compared to an untreated biofilm (labeled “Control”) using a crystal violet assay. The color of the control wells was more intense in color at 72 hours than those that were treated with FeTyr at 100, 150 and 200 μM for 72 hours.

[3] = Growth performance of broilers challenged with Campylobacter dirty litter at day 20; format: in vivo, chicken (Ross 308 male broilers); details: treatment groups 3, 5, 6, 7 (FeQ) and 8 (FeTyr)
Protocol: A study was performed to evaluate growth promotion and reduction of Campylobacter carriage using FeQ and FeTyr in Ross 308 male broilers with 7 treatment groups. Each treatment group comprised four replicates of 10 birds per pen (40 birds/treatment group and 4 pens of 10 birds/treatment group), and there were 2 control groups and 5 test groups. All the test groups and one of the control groups were exposed at day 20 of the trial to dirty litter, which tested positive for Campylobacter. This method was used to provide a more natural method to Campylobacter challenge the birds. Thus there was a positive control where one treatment group was challenged with Campylobacter and one negative control group where the birds were not challenged, and five treatment groups that were all challenged with Campylobacter. The total number of birds used in the 7 treatment groups was 280. Treatment group 1 was a negative control where birds just received the commercial feed, and were not challenged with dirty litter containing Campylobacter. Treatment group 2 was the positive control where the birds received the commercial feed, and were challenged with dirty litter containing Campylobacter at day 20. Treatment group 3 received 0.22 g/L of FeQ in their drinking water and 0.22 g/Kg FeQ in their feed during the entire trial, and was challenged with dirty litter containing Campylobacter at day 20. Treatment group 5 received 0.22 g/L of FeQ in their drinking water during the entire trial, and was challenged with dirty litter containing Campylobacter at day 20. Treatment group 6 received 0.22 g/kg FeQ in their feed during the entire trial, and was challenged with dirty litter containing Campylobacter at day 20. Treatment group 7 received 0.022 g/L FeQ in their drinking water during the entire trial, and was challenged with dirty litter containing Campylobacter at day 20. Treatment group 8 received 0.02 g/L FeTyr in their drinking water during the entire trial, and was challenged with dirty litter containing Campylobacter at day 20. The FeTyr was pre-dissolved in DMSO, and diluted to provide a solution of 0.02 g/L of FeTyr in water. (An additional treatment group 4 was terminated due to solubility issues.) […]
The feeding program is show in Table 4. […] All birds were weighed individually and feed weigh backs recorded per pen at day 0, 11, 21, 24 and 42 days.
In order to minimize risk of cross-contamination, standard industry biosecurity measures were used including: disinfecting boots, changing overshoes and gloves between pens/treatments, entering Campylobacter negative pens before entering Campylobacter positive pens, and leaving adjacent pens empty. Daily health, culls, and mortality were recorded. All bird weights were recorded at 0, 11, 21, 24, 33 and 42 days. […]

[4] = system: Psuedomonas aeruginosa (PAO1N); assay: Growth (OD600) in LB with Amikacin, tolerance to antibiotic; format: cell-based, Pseudomonas aeruginosa; details: 34, 100, 200 and 340 μM of FeQ or FePhe; Amikacin 10 µg/ml; 17.5 hours at 37° C.
Protocol: (§3) To investigate effects upon antibiotic resistance, a laboratory strain of Psuedomonas aeruginosa (PAO1N) and a mixed population of clinical isolates (PAO Mixed) were incubated in Luria-Bertani (LB) media alone, or with different concentrations (34 μM, 100 μM, 200 μM and 340 μM) of FeQ or FePhe.
(§4) Each of the different media, bar one control, contained 10 µg/ml of the aminoglycoside antibiotic Amikacin.
(§5) 10 μl of the bacterial strains were added into each well of a 96-well micro-titer plate, before 290 μl of the relevant media was added to wells. Each different condition was repeated in sextuplicate.
(§6) The plate was incubated at 37° C. within a micro-titer plate reader for 17.5 hours, with the OD600 read every 30 minutes.

[5] = system: mixed population of clinical isolates (PAO Mixed); assay: as above; format: cell-based, Pseudomonas aeruginosa; details: 34, 100, 200 and 340 μM of FeQ or FePhe; Amikacin 10 µg/ml; 17.5 hours at 37° C.
Protocol: as §3, §4, §5, §6

**Q.** With `O=C1[O][Fe]23([NH]C1Cc1ccc(O)c(O)c1)([NH]C(Cc1ccc(O)c(O)c1)C(=O)[O]2)[NH]C(Cc1ccc(O)c(O)c1)C(=O)[O]3` [FeDOPA, a complex of L-DOPA with Fe III (3,4 dihydrophenylalanine)] as the compound, how does the “dispersion of mature biofilm” value (EPEC-AcsrA; FeDOPA 100 μM) read?
**A.** dispersed the biofilm

**Q.** And the “attachment of EPEC cells to plastic well surface and biofilm formation (crystal violet, O.D. 570 nm)” value [1]?
**A.** inhibited

**Q.** And the “rate of growth relative to gentamicin alone” value ([2]; gentamicin 1.25 μM and FeDOPA 130, 160, 200 μM)?
**A.** inhibited

**Q.** Which “average Campylobacter cfu/g of caeca samples at day 42 versus positive control” value (Campylobacter) does the source give for `O=C1[O][Fe]23([NH]C1Cc1ccc(O)cc1)([NH]C(Cc1ccc(O)cc1)C(=O)[O]2)[NH]C(Cc1ccc(O)cc1)C(=O)[O]3` [FeTyr, a complex of L-tyrosine with Fe III] here?
**A.** lower levels of Campylobacter in their caeca; also recorded: performed better than the positive control

**Q.** And the “dispersion of mature biofilm” value (EPEC-AcsrA; FeTyr 100, 150 and 200 μM)?
**A.** biofilm dispersion increased

**Q.** What about the “optical absorbance of crystal violet at 570 nm of remaining mature biofilm versus untreated” value (EPEC-pgA^++) of the same compound?
**A.** significantly lower optical absorbance

**Q.** What about the “ABW at day 42 versus positive control (challenged, untreated)” value [3] of the same compound?
**A.** performed better than the positive control

**Q.** What about the “MFCR at day 42 versus positive control (challenged, untreated)” value [3] of the same compound?
**A.** performed better than the positive control

**Q.** What about the “rate of growth (growth curve)” value ([2]; Fe-Tyr 100 μM alone) of the same compound?
**A.** comparable to the control

**Q.** What about the “rate of growth relative to gentamicin alone” value ([2]; gentamicin 1.25 μM and Fe-Tyr 1.25 μM) of the same compound?
**A.** loses its resistance; also recorded: inhibited

**Q.** Which results are given for “A complex of L-phenylalanine with Fe III [Fe-Phe]”?
**A.** tolerance to the aminoglycoside Amikacin (OD600 growth) [4]: reducing tolerance; tolerance to the aminoglycoside Amikacin (OD600 growth) [5]: reducing tolerance
